Results from publication PMC6123649, “Structural basis for specific inhibition of the highly sensitive ShHTL7 receptor” (EMBO Reports, 2018).

What was measured:
ShHTL7 [1] = target: T1, ShHTL7 (Striga hermonthica, UniProt A0A0M3PNA2); experiment: Yoshimulactone Green (YLG) hydrolysis competition assay; format: biochemical
T1 sequence (A0A0M3PNA2 1-271): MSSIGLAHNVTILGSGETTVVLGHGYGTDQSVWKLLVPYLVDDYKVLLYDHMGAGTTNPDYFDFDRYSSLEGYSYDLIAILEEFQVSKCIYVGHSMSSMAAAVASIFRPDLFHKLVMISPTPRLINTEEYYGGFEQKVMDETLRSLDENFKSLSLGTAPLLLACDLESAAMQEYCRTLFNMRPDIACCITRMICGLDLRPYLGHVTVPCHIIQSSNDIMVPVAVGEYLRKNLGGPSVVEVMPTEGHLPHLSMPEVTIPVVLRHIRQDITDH
Experimental: In vitro YLG hydrolysis assays were performed using 3 μM of ShHTL7, ShHTL7‐L143Y, AtD14, and OsD14 in a reaction buffer (1× PBS) with 0.1% dimethyl sulfoxide (DMSO) in a 100 μl volume on a 96‐well black plate (Greiner). The fluorescent intensity was measured by SpectraMax i3 (Molecular Devices) using an excitation wavelength of 480 nm and a detection wavelength of 520 nm. […] Protein‐Triton mixes were pre‐incubated for 30 min. 1 μM YLG (Tokyo Chemical Industry Co. Ltd.) was then added, and the assay was incubated for 60 min. The change in fluorescence observed over the course of 1 h incubation of YLG in buffer without protein was subtracted from the data collected in the presence of protein. The resulting relative fluorescence values were analyzed. The inhibitory curves and IC50 values were plotted using GraphPad (Prism 6) four‐parameter logistic curve. The rate of YLG hydrolysis by ShHTL7 was recorded following the above method at 10‐min interval for 2 h.

OsD14 [2] = target: T2, OsD14 (Oryza sativa subsp. japonica, UniProt Q10QA5); experiment: Intrinsic Triton fluorescence binding assay; conditions: up to 5 μM of OsD14
T2 construct: made in house; host or cells: E. coli BL21 (DE3)
T2 sequence (Q10QA5 1-318): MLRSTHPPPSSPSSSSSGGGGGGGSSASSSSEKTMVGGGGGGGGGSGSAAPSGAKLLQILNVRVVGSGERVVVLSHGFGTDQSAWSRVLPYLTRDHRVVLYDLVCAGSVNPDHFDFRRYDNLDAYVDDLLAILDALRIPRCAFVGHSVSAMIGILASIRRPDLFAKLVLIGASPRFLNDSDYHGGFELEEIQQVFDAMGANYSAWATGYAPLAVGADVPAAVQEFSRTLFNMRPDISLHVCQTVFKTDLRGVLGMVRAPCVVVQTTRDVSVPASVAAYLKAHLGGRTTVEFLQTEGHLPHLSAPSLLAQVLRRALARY
Experimental: Triton X‐100 has an excitation and emission wavelength of 275 and 302 nm, respectively. ShHTL7, ShHTL7‐L143Y, AtD14, and OsD14 were incubated in 50 mM Tris–HCl pH 7.5, 150 mM NaCl, with or without 0.005% Tween‐20, at concentrations ranging from 10 μM to 1 nM (obtained using serial dilutions) with 154 nM of Triton X‐100 for 1–2 h, and fluorescence values were then measured by SpectraMax i3 (Molecular Devices) at excitation and detection wavelengths of 275 and 302 nm, respectively. […] Data were normalized to the background fluorescence from the protein to obtain the change in Triton X‐100 fluorescence intensity. To determine the K d, the changes in Triton X‐100 fluorescence intensity were plotted against the concentration of the protein using the single binding site model implemented in GraphPad (Prism 6).

ShHTL7 [3] = target: T1, ShHTL7; experiment: Microscale thermophoresis (MST); format: binding; conditions: 2.5 h pre‐incubation; 0.005% Tween‐20; read-out: dissociation constant (Kd), MST
Experimental: ShHTL7 was N‐terminally labeled with RED dye (NT‐647) following the protocol from manufacturer (NanoTemper, Germany). Free dye was removed by passing through the Sephadex G‐25 column. Serial dilutions of unlabeled Triton X‐100, GR24, and PAA ranging from 25 μM to sub‐nanomolar range were mixed with 20 nM of NT‐647‐labeled ShHTL7 in buffer (50 mM Tris–HCl, 150 mM NaCl, 0.005% Tween‐20) and incubated for 2.5 h in the studies for Triton X‐100 and PAA except with GR24, and it was recorded after 10‐min incubation. About 10 μl of sample was loaded into premium monolith NT capillaries, and assays were carried out in a NanoTemper Monolith NT.015T. The red fluorescence was excited by a light‐emitting diode, and its emission was recorded on the focused part of capillaries. Using laser diode, a microscopic temperature gradient was created at the same location and the fluorescence depletion was measured. K d values were determined by plotting the concentrations of unlabeled ligands against the changes in fluorescent thermophoresis signal, and the data were analyzed using the NanoTemper analysis software.

AtD14 = target: T3, AtD14 (Arabidopsis thaliana, UniProt Q9SQR3); experiment: YLG hydrolysis assay; format: biochemical
T3 construct: made in house; host or cells: E. coli BL21 (DE3)
T3 sequence (Q9SQR3 1-267): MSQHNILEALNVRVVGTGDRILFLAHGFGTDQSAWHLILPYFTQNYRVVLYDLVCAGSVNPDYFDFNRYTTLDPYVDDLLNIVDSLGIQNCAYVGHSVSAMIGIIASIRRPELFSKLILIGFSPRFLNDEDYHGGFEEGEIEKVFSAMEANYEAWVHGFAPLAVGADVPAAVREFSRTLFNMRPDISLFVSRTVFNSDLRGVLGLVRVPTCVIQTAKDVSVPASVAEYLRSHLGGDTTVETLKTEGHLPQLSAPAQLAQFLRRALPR
Experimental: (§1) In vitro YLG hydrolysis assays were performed using 3 μM of ShHTL7, ShHTL7‐L143Y, AtD14, and OsD14 in a reaction buffer (1× PBS) with 0.1% dimethyl sulfoxide (DMSO) in a 100 μl volume on a 96‐well black plate (Greiner). The fluorescent intensity was measured by SpectraMax i3 (Molecular Devices) using an excitation wavelength of 480 nm and a detection wavelength of 520 nm. ShHTL7, ShHTL7‐L143Y, AtD14, and OsD14 were mixed with Triton X‐100, using serial dilutions to cover the Triton X‐100 concentration range from 5 μM until 4.87 nM. Protein‐Triton mixes were pre‐incubated for 30 min. 1 μM YLG (Tokyo Chemical Industry Co. Ltd.) was then added, and the assay was incubated for 60 min. The change in fluorescence observed over the course of 1 h incubation of YLG in buffer without protein was subtracted from the data collected in the presence of protein. The resulting relative fluorescence values were analyzed. The inhibitory curves and IC50 values were plotted using GraphPad (Prism 6) four‐parameter logistic curve. The rate of YLG hydrolysis by ShHTL7 was recorded following the above method at 10‐min interval for 2 h.

OsD14 [4] = target: T2, OsD14; experiment: YLG hydrolysis assay; format: biochemical
Experimental: as §1

Q: Which IC50 (ShHTL7 [1]; 3 μM ShHTL7, 1 μM YLG, pre‐incubation with compound, read-out: IC50, YLG hydrolysis by ShHTL7) does the source give for Triton X-100 here?
A: Its IC50 is 0.47 ± 0.11 µM.

Q: And the “fold lower IC50 than that reported for Soporidine” value (ShHTL7 [1]; compared with non‐specific inhibitor Soporidine)?
A: Its value is 25 fold.

Q: And the “change of Triton fluorescence in presence of protein” value (OsD14 [2])?
A: The value was “did not change”.

Q: What about the Kd (ShHTL7 [3]) of the same substance?
A: Its Kd is 0.44 ± 0.05 µM.

Q: And the “decrease of YLG hydrolysis rate” value (AtD14; 5 μM Triton)?
A: The value was 10%.

Q: What about the “effect on YLG hydrolysis activity” value (AtD14; Triton up to 0.5 μM) of the same substance?
A: The value was “did not impact”.

Q: What about the “decrease of YLG hydrolysis rate” value (OsD14 [4]; 5 μM Triton) of the same substance?
A: Its value is 10%.

Q: What about the “effect on YLG hydrolysis activity” value (OsD14 [4]; Triton up to 0.5 μM) of the same substance?
A: The value was “did not impact”.
